From US10881718B2, “Bifunctional conjugate compositions and associated methods” (priority 2010, dated 2021)
Non-standard residues stand in square brackets, D forms with d. No end group written: not given here. Ahx = NCCCCCC(=O)O

Legend:
[1] = tested on: EAE model induced in SJL/J mice; test: Suppression of EAE by SAgAs: cell adhesion target and size (Example 2); assay type: in vivo; settings: PLP conc. 100 nMol as printed in Table 11
Procedure: (§1) Induction of EAE and Therapeutic Study.
Four-6 week-old SJL/J female mice were immunized subcutaneously (s.c) with […] of PLP139-151 in a 0.2 mL emulsion composed of equal volumes of complete Freund's adjuvant (CFA) containing killed Mycobacterium tuberculosis strain H37RA (final concentration of 4 mg/mL; Difco) and phosphate-buffered saline (PBS) containing PLP. The PLP139-151/CFA emulsion was administered to regions above the shoulders and the flanks (total of four sites; 50 μL at each injection site). Additionally, 200 ng/100 μL of pertussis toxin (List Biological Laboratories Inc.) was injected intraperitoneally (i.p.) on the day of immunization (day 0) and 2 days post-immunization. […] One hundred μL of each vehicle was injected for all samples and controls. […] Body weight was also measured daily.
Statistical differences were determined by comparing treated groups to the negative control (PBS) for clinical disease score and body weight. […] For individual clinical day scores and cytokine measurements T test was employed. All analyses were performed using GraphPad Software (GraphPad Software Inc.).
Efficacy of SAgAs was evaluated in the EAE model induced in SJL/J mice. The study design is outlined in Table 11 below. Typically disease onset occurs at approximately day 8 and progresses to remission around day 20. […]

IFN-γ = test: Plasma cytokine analysis (ELISA) in EAE mice: IFN-γ; assay type: in vivo, SJL/J mice
Procedure: (§2) Blood samples were taken from each mouse via mandibular bleeds (˜100 uL) on days 0, 6, 12, 18, 25. To ensure there was enough sample to perform ELISA cytokine testing blood from, two mice within the same group was pooled at each time point for a total of four samples per group. Samples were collected in heparin-containing tubes and centrifuged to separate red blood cells. Plasma was collected and sent for cytokine analysis to the Cytokine Core Laboratory at the University of Maryland. The cytokines analyzed were IL-2, IL-4, IL-10, IL-17, TNF-α, and TGF-β.

TNF-α = test: Plasma cytokine analysis (ELISA) in EAE mice: TNF-α; assay type: in vivo, SJL/J mice; settings: day 6; PBS 1.8 pg/mL
Procedure: as §2

[2] = tested on: EAE model induced in SJL/J mice; test: Suppression of EAE by SAgAs and NP-Arrays (Example 1); assay type: in vivo; settings: PLP conc. 100 nMol (100* for LABL-only arrays); s.c. days 4, 7, 10
Procedure: as §1
SJL/J (H-2s) female mice, 4-6 weeks old, were purchased from The Jackson Laboratory and housed under specified, pathogen-free conditions at The University of Kansas. All protocols involving live mice were approved by the Institutional Animal Care and Use Committee. Mice were immunized subcutaneously (s.c) with […] of PLP139-151 in a 0.2 mL emulsion composed of equal volumes of phosphate-buffered saline (PBS) and complete Freund's adjuvant (CFA) containing killed Mycobacterium tuberculosis strain H37RA (final concentration of 4 mg/mL; Difco). The PLP139-151/CFA was administered to regions above the shoulders and the flanks (total of four sites; 50 μL at each injection site). In addition, 200 ng/100 μL of pertussis toxin (List Biological Laboratories Inc.) was injected intraperitoneally (i.p.) on the day of immunization (day 0) and 2 days post-immunization. The mice received s.c. injections of each sample, equivalent to 100 nMol PLP/100 μL, on days 4, 7, 10. All NP samples were sonicated to disperse NPs before injection. For HA samples and controls, 100 μL of each vehicle was injected. […] Body weight was also measured daily.
Statistical differences were determined by comparing treated groups to the negative control (PBS) for clinical disease score and body weight. […]
The SAgAs and NP-Arrays were evaluated in an EAE model induced in SJL/J mice. […]

IL-17 = test: Plasma cytokine analysis (ELISA) in EAE mice: IL-17; assay type: in vivo, SJL/J mice
Procedure: as §2

[3] = design: species or system mice; settings: mouse, in vivo, sc
Procedure: In Vivo Imaging. In vivo imaging was completed using the Maestro Imaging Suite. Animals were anesthetized using an isoflurane vaporizer and IR-820 labeled SAgA was injected s.c. at the base of the neck. After injection images were taken of the animal's top, left, bottom, and right side by rotating the animal in the exposure pane. The animal was imaged at defined time points over a 24 hour period to track the drainage and clearance of the SAgA from the injection site.

| time of drainage/clearance of IR820-labeled material from the injection site [3] | Substance | Clinical Significance vs PBS: % Weight loss [1] | Clinical Significance vs PBS: Score ([1]; s.c. days 4, 7, 10) | reduction in peak expression of IFN-γ compared to PBS controls (IFN-γ; Day 6) | average plasma concentration of IFN-γ (IFN-γ; day 6, PBS 72 pg/mL) | plasma TNF-α peak concentration (TNF-α) | Clinical Data Significance compared to PBS: % Weight loss [2] | Clinical Data Significance compared to PBS: Score [2] | plasma IL-17 concentration (IL-17; day 6, PBS 23 pg/mL) | plasma IL-17 concentration (IL-17; day 12) |
| --- | --- | --- | --- | --- | --- | --- | --- | --- | --- | --- |
| – | HSLGKWLGHPDKF-AcGAcGAc-ITDGEATDSG (HSLGKWLGHPDKF[Ahx]G[Ahx]G[Ahx]ITDGEATDSG) [PLP-BPI] | p < 0.05, Days 16 | p < 0.05, Days 14 & 17 | ~40% | 31 pg/mL | 3.1 pg/mL | Days 12-16, 18-22, p < 0.01 | Day 12, p < 0.001 | 40 pg/mL | 31 pg/mL |
| 500 min | Hyaluronic acid [70 kDa HA] | – | – | – | – | – | – | – | – | – |
| ≤ 1440 min | Hyaluronic acid [HA] | – | – | – | – | – | – | – | – | – |
